Experimental findings from patent publication US6362203B1, “4-hydroxy-4-phenylpiperidine derivatives and pharmaceuticals containing the same” (SSP Co., LTD, priority 1999, dated 2002) are described below.

For orientation: melting point means the temperature, or range, at which the solid turns liquid.

The test system of one data set is opioid receptor. The settings on record: agonist activity relative to DAMGO (=1.0); guinea pig ileum longitudinal muscle sample. As to the method: Test 1: Action on the ileum sample excised from a guinea pig
A Hartley male guinea pig of about 500 g in weight was employed. From its ileocecum, 15 to 30 cm of the ileum was excised and a longitudinal muscle sample attached with the Auerbach's plexus was prepared. […] The agonist activity was indicated in terms of relative potency to DAMGO ([D-Ala^2, N-MePhe^4, Gly^5-ol]-enkephalin), a selective μ-opioid agonist.

`CN(C)C(=O)C(CCN1CCC(O)(c2ccc(O)cc2)CC1)(c1ccccc1)c1ccccc1` displayed a melting point of 155 °C.
Take `CN(C)C(=O)C(CCN1CCC(O)(c2ccccc2OCCCCCCO)CC1)(c1ccccc1)c1ccccc1.Cl`: the melting point turned out to be 110 °C.
Still for that read-out and setting: for `CCCCNC(=O)C(CCN1CCC(O)(c2ccccc2OCCO)CC1)(c1ccccc1)c1ccccc1` the value was 130 to 131 °C.
On to `C[C@@H](NC(=O)[C@@H](N)Cc1ccc(O)cc1)C(=O)NCC(=O)N(C)[C@@H](Cc1ccccc1)C(=O)NCCO` [DAMGO, [D-Ala^2, N-MePhe^4, Gly^5-ol]-enkephalin], for which the Relative potency in the data set with opioid receptor is recorded as 1.0.
In turn, `CN(C)C(=O)C(CCN1CCC(O)(c2cccc(O)c2)CC1)(c1ccccc1)c1ccccc1` returned a melting point of 169 °C.
